Test results as given in patent publication US6358885B1, “Substituted phenylheterocyclic herbicides” (Mississippi State University, priority 1992, dated 2002).

How the values were obtained:
barley = test: Test B preemergence/postemergence greenhouse plant response rating 0 to 10; type: in vivo, Hordeum vulgare; settings: 0 to 10 scale
How it was run: (§1)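 Postemergence treatment of plants two to eighteen cm tall ran alongside preemergence treatment of planted seed, each using compound in a non-phytotoxic solvent.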

bedstraw = test: as above; type: in vivo, Galium aparine; settings: 0 to 10 scale
How it was run: as §1

blackgrass = test: as above; type: in vivo, Alopecurus myosuroides; settings: 0 to 10 scale
How it was run: as §1

cocklebur = test: as above; type: in vivo, Xanthium pensylvanicum; settings: 0 to 10 scale
How it was run: as §1

crabgrass = test: as above; type: in vivo, Digitaria spp.; settings: 0 to 10 scale
How it was run: as §1

lambsquarters = test: as above; type: in vivo, Chenopodium album; settings: 0 to 10 scale
How it was run: as §1

rape = test: as above; type: in vivo, Brassica napus; settings: 0 to 10 scale
How it was run: as §1

rice [1] = test: as above; type: in vivo, Oryza sativa; settings: 0 to 10 scale
How it was run: as §1

soybean = test: as above; type: in vivo, Glycine max; settings: 0 to 10 scale
How it was run: as §1

sugar beet = test: as above; type: in vivo, Beta vulgaris; settings: 0 to 10 scale
How it was run: as §1

purple nutsedge = test: as above; type: in vivo, Cyperus rotundus; settings: 0 to 10 scale
How it was run: as §1

corn = test: Test C preemergence/postemergence greenhouse plant response rating 0 to 100; type: in vivo, Zea mays; settings: for Plant response rating, Corn: 62 g/ha, 0 to 100 scale
How it was run: (§2)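 Compounds in non-phytotoxic solvent applied preemergence to sandy loam one day after planting, postemergence at the 1–4 leaf stage, or to ~2.5 cm floodwater over silt loam.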

morningglory = test: as above; type: in vivo, Ipomoea hederacea; settings: for Plant response rating, Morningglory: 62 g/ha, 0 to 100 scale
How it was run: as §2

pigweed = test: as above; type: in vivo, Amaranthusretroflexus; settings: for Plant response rating Pigweed: 62 g/ha, 0 to 100 scale
How it was run: as §2

sorghum = test: as above; type: in vivo, Sorghum bicolor
How it was run: as §2

rice [2] = test: Test C flood test plant response rating 0 to 100; type: in vivo, Oryza sativa
How it was run: as §2

umbrella sedge = test: Test C flood test plant response rating 0 to 100; type: in vivo, Cyperus difformis
How it was run: as §2

barnyardgrass = test: Test C flood test plant response rating 0 to 100; type: in vivo, Echinochloa crus-galli
How it was run: as §2

[3] = POSTEMERGENCE section, flood test, Rate 1 g/ha
[4] = POSTEMERGENCE section, flood test, Rate 4 g/ha
[5] = Rate 16 g/ha, under POSTEMERGENCE head (flood test species)
[6] = flood test species listed under POSTEMERGENCE, 62 g/ha, 0 to 100 scale

CCN1C(=O)COc2cc(F)c(-c3nn4c(c3Cl)CCCC4)cc21 [Compound 54]
Plant response rating, Barley (barley; POSTEMERGENCE, Rate 10 g/ha): 4 | Plant response rating, Barley (barley; POSTEMERGENCE, Rate 50 g/ha): 4 | Plant response rating, Barley (barley; PREEMERGENCE, Rate 10 g/ha): 0 | Plant response rating, Barley (barley; PREEMERGENCE, Rate 50 g/ha): 2 | Plant response rating, Bedstraw (bedstraw; POSTEMERGENCE, Rate 10 g/ha): 9 | Plant response rating, Bedstraw (bedstraw; POSTEMERGENCE, Rate 50 g/ha): 9 | Plant response rating, Bedstraw (bedstraw; PREEMERGENCE, Rate 10 g/ha): 8 | Plant response rating, Bedstraw (bedstraw; PREEMERGENCE, Rate 50 g/ha): 9 | Plant response rating, Blackgrass (blackgrass; POSTEMERGENCE, Rate 10 g/ha): 5 | Plant response rating, Blackgrass (blackgrass; POSTEMERGENCE, Rate 50 g/ha): 6 | Plant response rating, Blackgrass (blackgrass; PREEMERGENCE, Rate 10 g/ha): 3 | Plant response rating, Blackgrass (blackgrass; PREEMERGENCE, Rate 50 g/ha): 3 | Plant response rating, Cocklebur (cocklebur; POSTEMERGENCE, Rate 10 g/ha): 9 | Plant response rating, Cocklebur (cocklebur; POSTEMERGENCE, Rate 50 g/ha): 10 | Plant response rating, Cocklebur (cocklebur; PREEMERGENCE, Rate 10 g/ha): 0 | Plant response rating, Cocklebur (cocklebur; PREEMERGENCE, Rate 50 g/ha): 0 | Plant response rating, Crabgrass (crabgrass; POSTEMERGENCE, Rate 10 g/ha): 2 | Plant response rating, Crabgrass (crabgrass; POSTEMERGENCE, Rate 50 g/ha): 3 | Plant response rating, Crabgrass (crabgrass; PREEMERGENCE, Rate 10 g/ha): 0 | Plant response rating, Crabgrass (crabgrass; PREEMERGENCE, Rate 50 g/ha): 0 | Plant response rating, Lambsquarter (lambsquarters; POSTEMERGENCE, Rate 10 g/ha): 10 | Plant response rating, Lambsquarter (lambsquarters; POSTEMERGENCE, Rate 50 g/ha): 10 | Plant response rating, Lambsquarter (lambsquarters; PREEMERGENCE, Rate 50 g/ha): 10 | Plant response rating, Rape (rape; POSTEMERGENCE, Rate 10 g/ha): 10 | Plant response rating, Rape (rape; POSTEMERGENCE, Rate 50 g/ha): 10 | Plant response rating, Rape (rape; PREEMERGENCE, Rate 50 g/ha): 6 | Plant response rating, Rice (rice [1]; POSTEMERGENCE, Rate 10 g/ha): 3 | Plant response rating, Rice (rice [1]; POSTEMERGENCE, Rate 50 g/ha): 4 | Plant response rating, Rice (rice [1]; PREEMERGENCE, Rate 50 g/ha): 0 | Plant response rating, Soybean (soybean; POSTEMERGENCE, Rate 10 g/ha): 8 | Plant response rating, Soybean (soybean; POSTEMERGENCE, Rate 50 g/ha): 9 | Plant response rating, Soybean (soybean; PREEMERGENCE, Rate 50 g/ha): 0 | Plant response rating, Sugar beet (sugar beet; POSTEMERGENCE, Rate 10 g/ha): 10 | Plant response rating, Sugar beet (sugar beet; POSTEMERGENCE, Rate 50 g/ha): 10 | Plant response rating, Sugar beet (sugar beet; PREEMERGENCE, Rate 50 g/ha): 9 | Plant response rating, Nutsedge (purple nutsedge; POSTEMERGENCE, Rate 10 g/ha): 2 | Plant response rating, Nutsedge (purple nutsedge; POSTEMERGENCE, Rate 50 g/ha): 2 | Plant response rating, Nutsedge (purple nutsedge; PREEMERGENCE, Rate 50 g/ha): 0 | Plant response rating, Corn (corn; POSTEMERGENCE): 50 | Plant response rating (0 to 100), Corn (corn; POSTEMERGENCE, Rate 1 g/ha): 30 | Plant response rating (0 to 100), Corn (corn; POSTEMERGENCE, Rate 4 g/ha): 30 | Plant response rating, Corn (corn; PREEMERGENCE): 40 | Plant response rating (0 to 100), Corn (corn; PREEMERGENCE, Rate 1 g/ha): 0 | Plant response rating (0 to 100), Corn (corn; PREEMERGENCE, Rate 4 g/ha): 0 | Plant response rating (0 to 100), Corn (corn; Rate 16 g/ha, POSTEMERGENCE): 40 | Plant response rating (0 to 100), Corn (corn; Rate 16 g/ha, PREEMERGENCE): 0 | Plant response rating, Morningglory (morningglory; POSTEMERGENCE): 100 | Plant response rating (0 to 100), Morningglory (morningglory; POSTEMERGENCE, Rate 1 g/ha): 60 | Plant response rating (0 to 100), Morningglory (morningglory; POSTEMERGENCE, Rate 4 g/ha): 100 | Plant response rating, Morningglory (morningglory; PREEMERGENCE): 20 | Plant response rating (0 to 100), Morningglory (morningglory; PREEMERGENCE, Rate 1 g/ha): 0 | Plant response rating (0 to 100), Morningglory (morningglory; PREEMERGENCE, Rate 4 g/ha): 0 | Plant response rating (0 to 100), Morningglory (morningglory; Rate 16 g/ha, POSTEMERGENCE): 100 | Plant response rating (0 to 100), Morningglory (morningglory; Rate 16 g/ha, PREEMERGENCE): 0 | Plant response rating Pigweed (pigweed; POSTEMERGENCE): 100 | Plant response rating (0 to 100), Pigweed (pigweed; POSTEMERGENCE, Rate 1 g/ha): 95 | Plant response rating (0 to 100), Pigweed (pigweed; POSTEMERGENCE, Rate 4 g/ha): 100 | Plant response rating Pigweed (pigweed; PREEMERGENCE): 100 | Plant response rating (0 to 100), Pigweed (pigweed; PREEMERGENCE, Rate 1 g/ha): 0 | Plant response rating (0 to 100), Pigweed (pigweed; PREEMERGENCE, Rate 4 g/ha): 90 | Plant response rating (0 to 100), Pigweed (pigweed; Rate 16 g/ha, POSTEMERGENCE): 100 | Plant response rating (0 to 100), Pigweed (pigweed; Rate 16 g/ha, PREEMERGENCE): 100 | Plant response rating, Sorghum (sorghum; POSTEMERGENCE, 62 g/ha, 0 to 100 scale): 60 | Plant response rating (0 to 100), Sorghum (sorghum; POSTEMERGENCE, Rate 1 g/ha): 20 | Plant response rating (0 to 100), Sorghum (sorghum; POSTEMERGENCE, Rate 4 g/ha): 40 | Plant response rating (0 to 100), Sorghum (sorghum; PREEMERGENCE, Rate 1 g/ha): 0 | Plant response rating (0 to 100), Sorghum (sorghum; PREEMERGENCE, Rate 4 g/ha): 0 | Plant response rating (0 to 100), Sorghum (sorghum; Rate 16 g/ha, POSTEMERGENCE): 50 | Plant response rating (0 to 100), Sorghum (sorghum; Rate 16 g/ha, PREEMERGENCE): 0 | Plant response rating (0 to 100), Rice Japonica (rice [2]; [3]): 0 | Plant response rating (0 to 100), Rice Japonica (rice [2]; [4]): 0 | Plant response rating (0 to 100), Rice Japonica (rice [2]; [5]): 55 | Plant response rating Rice Japonica (rice [2]; [6]): 85 | Plant response rating (0 to 100), Umbrella sedge (umbrella sedge; [3]): 0 | Plant response rating (0 to 100), Umbrella sedge (umbrella sedge; [4]): 0 | Plant response rating (0 to 100), Umbrella sedge (umbrella sedge; [5]): 10 | Plant response rating Umbrella sedge (umbrella sedge; [6]): 70 | Plant response rating (0 to 100), Barnyardgrass 2 (barnyardgrass; [3]): 0 | Plant response rating (0 to 100), Barnyardgrass 2 (barnyardgrass; [4]): 10 | Plant response rating (0 to 100), Barnyardgrass 2 (barnyardgrass; [5]): 95 | Plant response rating Barnyardgrass 2 (barnyardgrass; [6]): 100
